Active and inactive are the calls of the source. No cut-off for these calls is given here.
How the values were obtained:
[1] = system: RS4-11; test: Antiproliferative activity against human RS4;11 cells harbouring p53 wild type assessed as inhibition of cell growth measured after 4 days by WST-8 assay; type: functional, cell-based; conditions: RS4-11, 96 h
[2] = system: RS4-11; test: Antiproliferative activity against human RS4;11 cells harbouring p53 mutant assessed as inhibition of cell growth measured after 4 days by WST-8 assay; type: functional, cell-based; conditions: RS4-11, 96 h
[3] = system: RS4-11; test: Antitumor activity against human RS4;11 cells xenografted in SCID mouse model assessed as tumor regression at 50 mg/kg, iv qd administered every other for 2 weeks by caliper method; type: functional, organism-based
[4] = system: RS4-11; test: Antiproliferative activity against human RS4;11 cells assessed as inhibition of cell growth measured after 4 days by WST-8 assay; type: functional, cell-based
[5] = target: Protein cereblon/Eukaryotic peptide chain release factor GTP-binding subunit ERF3A (Homo sapiens) (UniProt Q96SW2+P15170); test: PROTAC activity at CRBN/GSPT1 in human RS4;11 cells assessed as induction of GSPT1 degradation at 10 to 1000 nM measured after 4 hrs by Western blot analysis; type: cell-based; conditions: dose 10-1000 nM
Sequence of Protein cereblon/Eukaryotic peptide chain release factor GTP-binding subunit ERF3A (Homo sapiens) (P15170 whole entry, looked up): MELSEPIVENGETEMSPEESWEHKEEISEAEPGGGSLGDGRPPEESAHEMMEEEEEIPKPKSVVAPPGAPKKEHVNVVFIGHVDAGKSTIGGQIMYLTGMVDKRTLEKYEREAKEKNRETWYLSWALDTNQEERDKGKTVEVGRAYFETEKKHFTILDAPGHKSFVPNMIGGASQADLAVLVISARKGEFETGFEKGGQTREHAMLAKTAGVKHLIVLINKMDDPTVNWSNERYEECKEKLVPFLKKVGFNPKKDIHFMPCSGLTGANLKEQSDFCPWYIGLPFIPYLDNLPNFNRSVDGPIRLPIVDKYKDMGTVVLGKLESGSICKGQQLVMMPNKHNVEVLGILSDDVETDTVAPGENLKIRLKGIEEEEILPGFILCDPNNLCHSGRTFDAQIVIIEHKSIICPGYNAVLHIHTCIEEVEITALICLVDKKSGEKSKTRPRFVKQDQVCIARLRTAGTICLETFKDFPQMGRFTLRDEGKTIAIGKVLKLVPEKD
Sequence of Protein cereblon/Eukaryotic peptide chain release factor GTP-binding subunit ERF3A (Homo sapiens) (Q96SW2 whole entry, looked up): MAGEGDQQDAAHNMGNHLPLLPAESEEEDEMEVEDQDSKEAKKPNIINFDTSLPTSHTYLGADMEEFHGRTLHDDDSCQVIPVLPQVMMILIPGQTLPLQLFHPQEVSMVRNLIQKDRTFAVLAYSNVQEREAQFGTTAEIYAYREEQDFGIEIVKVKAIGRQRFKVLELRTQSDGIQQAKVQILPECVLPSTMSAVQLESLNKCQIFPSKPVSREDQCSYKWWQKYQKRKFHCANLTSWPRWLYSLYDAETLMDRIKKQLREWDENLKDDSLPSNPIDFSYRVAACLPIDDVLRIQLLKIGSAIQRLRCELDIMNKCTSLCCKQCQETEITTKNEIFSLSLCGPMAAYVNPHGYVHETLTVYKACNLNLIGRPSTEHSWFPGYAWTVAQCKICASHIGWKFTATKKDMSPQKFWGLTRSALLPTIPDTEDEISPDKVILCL

IC50 [1] [nM]	IC50 [2] [nM]	Activity [5]	IC50 ([4]; RS4-11, 96 h) [nM]	SMILES	Activity [3]	Activity ([4]; time 4.0 day)
2	3			O=C1CCC(N2Cc3c(C#CCCCNC(=O)C45CCC(NC(=O)[C@@H]6NC7(CCCCC7)[C@@]7(C(=O)Nc8cc(Cl)ccc87)[C@H]6c6cccc(Cl)c6F)(CC4)C5)cccc3C2=O)C(=O)N1 (stereo not given in full)		
7	> 1000			O=C1CCC(N2Cc3c(C#CCCCNC(=O)c4ccc(NC(=O)[C@@H]5NC6(CCCCC6)[C@@]6(C(=O)Nc7cc(Cl)ccc76)[C@H]5c5cccc(Cl)c5F)cn4)cccc3C2=O)C(=O)N1 (stereo not given in full)		
8	> 1000			O=C1CCC(N2Cc3c(NC4CCN(CCNC(=O)c5ccc(NC(=O)[C@@H]6NC7(CCCCC7)[C@@]7(C(=O)Nc8cc(Cl)ccc87)[C@H]6c6cccc(Cl)c6F)cc5)CC4)cccc3C2=O)C(=O)N1 (stereo not given in full)		
3	7			O=C1CCC(N2Cc3c(C#CCCCNC(=O)[C@H]4C[C@H](NC(=O)[C@@H]5NC6(CCCCC6)[C@@]6(C(=O)Nc7cc(Cl)ccc76)[C@H]5c5cccc(Cl)c5F)C4)cccc3C2=O)C(=O)N1 (stereo not given in full)		
3	> 1000			O=C1CCC(N2Cc3c(C#CCCCNC(=O)c4ccc(NC(=O)[C@@H]5NC6(CCCCC6)[C@@]6(C(=O)Nc7cc(Cl)ccc76)[C@H]5c5cccc(Cl)c5F)cc4F)cccc3C2=O)C(=O)N1 (stereo not given in full)		
19	> 1000			O=C1CCC(N2Cc3c(NCC4CN(C(=O)c5ccc(NC(=O)[C@@H]6NC7(CCCCC7)[C@@]7(C(=O)Nc8cc(Cl)ccc87)[C@H]6c6cccc(Cl)c6F)cc5)C4)cccc3C2=O)C(=O)N1 (stereo not given in full)		
8	> 1000			O=C1CCC(N2Cc3c(C#CCCCNC(=O)c4ccc(NC(=O)[C@@H]5NC6(CCCCC6)[C@@]6(C(=O)Nc7cc(Cl)ccc76)[C@H]5c5cccc(Cl)c5F)c(F)c4)cccc3C2=O)C(=O)N1 (stereo not given in full)		
3	> 1000			O=C1CCC(N2Cc3c(C#CCCCNC(=O)C45CCC(NC(=O)[C@@H]6NC7(CCCCC7)[C@@]7(C(=O)Nc8cc(Cl)ccc87)[C@H]6c6cccc(Cl)c6F)(CC4)CC5)cccc3C2=O)C(=O)N1 (stereo not given in full)		
3	7			O=C1CCC(N2Cc3c(C#CCCCNC(=O)C45CC(NC(=O)[C@@H]6NC7(CCCCC7)[C@@]7(C(=O)Nc8cc(Cl)ccc87)[C@H]6c6cccc(Cl)c6F)(C4)C5)cccc3C2=O)C(=O)N1 (stereo not given in full)		
8	> 1000			O=C1CCC(N2Cc3c(NCC4CN(CCNC(=O)c5ccc(NC(=O)[C@@H]6NC7(CCCCC7)[C@@]7(C(=O)Nc8cc(Cl)ccc87)[C@H]6c6cccc(Cl)c6F)cc5)C4)cccc3C2=O)C(=O)N1 (stereo not given in full)		
7	> 1000			O=C1CCC(N2Cc3c(CCc4cn(CCCNC(=O)c5ccc(NC(=O)[C@@H]6NC7(CCCCC7)[C@@]7(C(=O)Nc8cc(Cl)ccc87)[C@H]6c6cccc(Cl)c6F)cc5)cn4)cccc3C2=O)C(=O)N1 (stereo not given in full)	Active; Compound Showed Minimal Tumor Growth Inhibition	
				CN1C(=O)CCC(N2Cc3c(C#CC4CCN(C(=O)[C@H]5CC[C@H](NC(=O)[C@@H]6NC7(CCCCC7)[C@@]7(C(=O)Nc8cc(Cl)ccc87)[C@H]6c6cccc(Cl)c6F)CC5)CC4)cccc3C2=O)C1=O (stereo not given in full)		Active; Compound Showed Weaker Cell Growth Inhibition
19	> 1000			O=C1CCC(N2Cc3c(CCC4CCN(C(=O)c5ccc(NC(=O)[C@@H]6NC7(CCCCC7)[C@@]7(C(=O)Nc8cc(Cl)ccc87)[C@H]6c6cccc(Cl)c6F)cc5)CC4)cccc3C2=O)C(=O)N1 (stereo not given in full)		
> 1000	> 1000			O=C1CCC(N2Cc3c(C#CCCCCN4CCC(NC(=O)C5CCC(NC(=O)[C@@H]6NC7(CCCCC7)[C@@]7(C(=O)Nc8cc(Cl)ccc87)[C@H]6c6cccc(Cl)c6F)CC5)CC4)cccc3C2=O)C(=O)N1 (stereo not given in full)		
34	> 1000			O=C1CCC(N2Cc3c(CC[C@H]4CC[C@H](NC(=O)c5ccc(NC(=O)[C@@H]6NC7(CCCCC7)[C@@]7(C(=O)Nc8cc(Cl)ccc87)[C@H]6c6cccc(Cl)c6F)cc5)CC4)cccc3C2=O)C(=O)N1 (stereo not given in full)		
2	> 1000			O=C1CCC(N2Cc3c(C#CCCCNC(=O)c4ccc(NC(=O)[C@@H]5NC6(CCCCC6)[C@@]6(C(=O)Nc7cc(Cl)ccc76)[C@H]5c5cccc(Cl)c5F)nc4)cccc3C2=O)C(=O)N1 (stereo not given in full)		
19	33			O=C1CCC(N2Cc3c(NC4CCN(C(=O)c5ccc(NC(=O)[C@@H]6NC7(CCCCC7)[C@@]7(C(=O)Nc8cc(Cl)ccc87)[C@H]6c6cccc(Cl)c6F)cc5)CC4)cccc3C2=O)C(=O)N1 (stereo not given in full)		
37	> 1000			O=C1CCC(N2Cc3c(NC4CN(C(=O)c5ccc(NC(=O)[C@@H]6NC7(CCCCC7)[C@@]7(C(=O)Nc8cc(Cl)ccc87)[C@H]6c6cccc(Cl)c6F)cc5)C4)cccc3C2=O)C(=O)N1 (stereo not given in full)		
> 1000	> 1000			O=C1CCC(N2Cc3c(C#CCCCNC(=O)C4CCN(C(=O)[C@@H]5NC6(CCCCC6)[C@@]6(C(=O)Nc7cc(Cl)ccc76)C5c5cccc(Cl)c5F)CC4)cccc3C2=O)C(=O)N1 (single isomer, unassigned)		
50	> 1000			O=C1CCC(N2Cc3c(NC4CN(CCNC(=O)c5ccc(NC(=O)[C@@H]6NC7(CCCCC7)[C@@]7(C(=O)Nc8cc(Cl)ccc87)[C@H]6c6cccc(Cl)c6F)cc5)C4)cccc3C2=O)C(=O)N1 (stereo not given in full)		
3	3	Active		O=C1CCC(N2Cc3c(C#CCCCNC(=O)c4cccc(NC(=O)[C@@H]5NC6(CCCCC6)[C@@]6(C(=O)Nc7cc(Cl)ccc76)[C@H]5c5cccc(Cl)c5F)c4)cccc3C2=O)C(=O)N1 (stereo not given in full)		
0.9	> 1000		1	O=C1CCC(N2Cc3c(C#CCCCNC(=O)[C@H]4CC[C@H](NC(=O)[C@@H]5NC6(CCCCC6)[C@@]6(C(=O)Nc7cc(Cl)ccc76)[C@H]5c5cccc(Cl)c5F)CC4)cccc3C2=O)C(=O)N1 (stereo not given in full)	Active	
8	> 1000			COc1cc(C(=O)NCCCC#Cc2cccc3c2CN(C2CCC(=O)NC2=O)C3=O)ccc1NC(=O)[C@@H]1NC2(CCCCC2)[C@@]2(C(=O)Nc3cc(Cl)ccc32)[C@H]1c1cccc(Cl)c1F (stereo not given in full)		
200	> 1000			O=C1CCC(N2Cc3c(C#C[C@H]4CC[C@H](NC(=O)c5ccc(NC(=O)[C@@H]6NC7(CCCCC7)[C@@]7(C(=O)Nc8cc(Cl)ccc87)[C@H]6c6cccc(Cl)c6F)cc5)CC4)cccc3C2=O)C(=O)N1 (stereo not given in full)		
9	> 1000			O=C1CCC(N2Cc3c(NCC4CCN(CCNC(=O)c5ccc(NC(=O)[C@@H]6NC7(CCCCC7)[C@@]7(C(=O)Nc8cc(Cl)ccc87)[C@H]6c6cccc(Cl)c6F)cc5)CC4)cccc3C2=O)C(=O)N1 (stereo not given in full)		
19	> 1000			O=C1CCC(N2Cc3c(NCC4CCN(C(=O)c5ccc(NC(=O)[C@@H]6NC7(CCCCC7)[C@@]7(C(=O)Nc8cc(Cl)ccc87)[C@H]6c6cccc(Cl)c6F)cc5)CC4)cccc3C2=O)C(=O)N1 (stereo not given in full)		
4	> 1000			COc1cc(NC(=O)[C@@H]2NC3(CCCCC3)[C@@]3(C(=O)Nc4cc(Cl)ccc43)[C@H]2c2cccc(Cl)c2F)ccc1C(=O)NCCCC#Cc1cccc2c1CN(C1CCC(=O)NC1=O)C2=O (stereo not given in full)		
5	> 1000			O=C(CN1CCC(NC(=O)[C@@H]2NC3(CCCCC3)[C@@]3(C(=O)Nc4cc(Cl)ccc43)[C@H]2c2cccc(Cl)c2F)CC1)NCCCC#Cc1cccc2c1CN(C1CCC(=O)NC1=O)C2=O (stereo not given in full)	inactive	
